Results on 25 compounds are retold here after ChEMBL document CHEMBL1131667, “4-Phenylthiazole derivatives inhibit IL-6 secretion in osteoblastic cells and suppress bone weight loss in ovariectomized mice” (Bioorg Med Chem Lett, 1999).

Assay [1] in a line: Inhibition the IL-6 secretion stimulated at a concentration of 10 ng/ml in osteoblastic MC3T3-E 1 cells. To be noted: Mus musculus, MC3T3-E1. It is filed as functional.
Assay [2] deals with Mus musculus. The experiment in a line: Effect on femoral weight loss in ovariectomized mice at a dose of 2.0mg/kg/day, ip. It counts as functional, organism-based.
For assay [3], the system named is Mus musculus. The experiment in a line: Effect on femoral weight loss in ovariectomized mice at a dose of 0.4 mg/kg/day, ip. It counts as functional, organism-based.

What is called IC50 is the concentration that gives 50% inhibition. Read a low IC50 as greater potency.

Converted amounts (≈) assume the structure as drawn. Some results are limits rather than exact numbers.

In assay [1], `Cc1sc(N)nc1-c1cccc(Cl)c1` gave an IC50 of 2.5 µg/mL (≈ 11.1 µM).

In assay [1], `Nc1nc(-c2ccc(Cl)cc2)c(C(=O)O)s1` had an IC50 of 20 µg/mL (≈ 78.5 µM). Besides, the results for the Recovery in the assay with Mus musculus [2] and in the assay on Mus musculus [3] were 8.6% and 7.1%, respectively.

As to `Cc1sc(N)nc1-c1ccc(Cl)cc1`, half-maximal inhibition in assay [1] (IC50) required 10 µg/mL (≈ 44.5 µM). Besides, the Recovery was determined as 57.8% in the assay on Mus musculus [2] and 22.8% with Mus musculus [3].

In assay [1], `CCOC(=O)c1sc(N)nc1-c1ccccc1` had an IC50 of 6 µg/mL (≈ 24.2 µM).

`Cc1sc(N)nc1-c1ccccc1` yielded an IC50 in assay [1] of 10 µg/mL (≈ 52.6 µM).

Consider `CCOC(=O)c1sc(-c2ccncc2)nc1-c1ccccc1`, for which the IC50 in assay [1] turned out to be 90 µg/mL (≈ 290 µM). Compared with the last compound, the IC50 is about 9-fold higher.

In the case of `Cc1sc(N)nc1-c1ccc(-c2ccccc2)cc1`, half-maximal inhibition in assay [1] (IC50) was put at 39 µg/mL (≈ 146 µM).

In assay [1], `Cc1sc(N)nc1-c1ccc(Cl)cc1Cl` came in with an IC50 of 8 µg/mL (≈ 30.9 µM).

In turn, `Cc1sc(N)nc1-c1ccc(C(F)(F)F)cc1` had an IC50 in assay [1] of 3 µg/mL (≈ 11.6 µM).

For `Nc1nc(-c2ccccc2)cs1`, in assay [1], half-maximal inhibition (IC50) required 60 µg/mL (≈ 340 µM).

`CCOC(=O)c1scnc1-c1ccccc1`: in assay [1], 30 µg/mL (≈ 129 µM) corresponded to half-maximal inhibition (IC50).

In the case of `Cc1sc(N)nc1-c1ccc(Cl)c(Cl)c1`, the IC50 in assay [1] was 35 µg/mL (≈ 135 µM).

In assay [1], `CCOC(=O)c1sc(NC)nc1-c1ccccc1` returned a half-inhibitory concentration (IC50) of 40 µg/mL (≈ 152 µM). The IC50 values of the last two compounds are within 1.5-fold of each other.

The compound `CCOC(=O)c1sc(N)nc1-c1ccc(Cl)cc1` came in with an IC50 in assay [1] of 6 µg/mL (≈ 21.2 µM).

Compound `Cc1sc(N)nc1-c1ccc(F)cc1` gave an IC50 in assay [1] of 27 µg/mL (≈ 130 µM).

For the compound `CCOC(=O)c1sc(C)nc1-c1ccccc1`, half-maximal inhibition in assay [1] (IC50) required 40 µg/mL (≈ 162 µM). The IC50 values of the last two compounds are within 1.5-fold of each other.

For `Nc1nc(-c2ccccc2)c(C(=O)O)s1`, the IC50 in assay [1] is above 100 µg/mL.

Turning to `Cc1sc(N)nc1-c1ccc(O)cc1`, in assay [1], the IC50 turned out to be 1 µg/mL (≈ 4.85 µM). Further, the figures for the Recovery in the assay with Mus musculus [2] and in the assay with Mus musculus [3] were 35.5% and 13.9%, respectively.

`CNc1sc(N)nc1-c1ccccc1` showed an IC50 in assay [1] of 40 µg/mL (≈ 195 µM).

Regarding `COc1ccc(-c2nc(N)sc2C)cc1`, the midpoint of inhibition in assay [1], the IC50, lay at 7 µg/mL (≈ 31.8 µM). This IC50 is about 5.7-fold lower than that of the compound before.

In assay [1], `Cc1ccc(-c2nc(N)sc2C)cc1` displayed an IC50 of 24 µg/mL (≈ 117 µM). Compared with the last compound, the IC50 is about 3.4-fold higher.

In turn, `CCCNC(=O)c1sc(N)nc1-c1ccccc1` showed an IC50 in assay [1] of 40 µg/mL (≈ 153 µM).

In turn, `CCc1sc(N)nc1-c1ccccc1` returned an IC50 in assay [1] above 100 µg/mL.

In turn, `CCOC(=O)c1sc(NC=O)nc1-c1ccccc1` came in with an IC50 in assay [1] above 100 µg/mL.

In turn, `Cc1sc(N)nc1-c1ccccc1Cl` showed an IC50 in assay [1] of 50 µg/mL (≈ 223 µM).
